“And” between values parts separate entries of the source, which are not always exact repeats. Identical values can stand only once.

Common to all, as to test: Pot-culture stem and leaf treatment, fresh weight inhibition (Gowing method)
What all share (assay type): in vivo

In one experiment the test system is Echinochloa crusgalli. An excerpt:
(§1) Echinochloa crusgalli, Setaria viridis, Chenopodium album, Amaranthus retrollexus were collected from corn fields in Qingdao of Shandong Province. Sonchus brachyotus were collected from corn fields in Shenyang of Liaoning Province. Rhizoma Cyperi, Convolvulus arvensis were collected from corn fields in Shangqiu of Henan Province. Cirsium setosum were collected from corn fields in Xiantao of Hubei Province.
(§2) The above weeds were cultivated by a pot culture method. […] Full and uniform weed seeds were selected, soaked in warm water at 25° C. for 6 hours, and germinated in a 28° C. biochemical incubator (darkness). The weed seeds that had just germinated were evenly placed on the surface of the soil and then covered with 0.7 cm soil, and cultured in a controllable sunlight greenhouse after being treated with agents. A certain amount of water was added to the enamel pan regularly to keep the soil moist.
(§3) The culture was carried out in a controllable sunlight greenhouse at 18 to 30° C., in natural light, and relative humidity of 57% to 72%.
(§4) The technical materials were all dissolved in acetone, and diluted with an aqueous solution containing 0.1% emulsifier T-80. The dilution is performed as required.
(§5) 3 pots with 20 weed seeds per pot were treated in one treatment with […] per treatment, that is, a total of 60 weeds were treated in one treatment.
(§6) The agents were used for only once in the experiment. In the stage of weeds with 2 leaves and 1 core, the weeds were thinned out to maintain 15 weeds per pot and 45 weeds for each treatment, then continued to be cultured to 5-leaves and 1-core stage of Echinochloa crusgalli and Setaria viridis, and treated.
(§7) The well-cultured weeds were evenly placed on a platform with an area of 0.5 m^2, and a solution of agents was sprayed on the stems and leaves thereof by the 3WP-2000-type walking spray tower at a dosage of 30 kg/ha and at a spray pressure of 0.3 MPa. After all the solution was sprayed, the valve was closed. After 30 seconds, the door of the spray tower was opened, and the nutritional bowl was taken out. Then the valve was opened, and the spray tube was cleaned by spraying 50 ml of water.
(§8) A pot-culture method was employed. For the cultivation of weeds, please refer to the Section 1.1, and “Pesticide guidelines for laboratory bioactivity tests—herbicides”. As to a method for applying agents, please refer to the section 2.3.2, that is, a method for treating stems and leaves was employed.
(§9) A method for investigating absolute number was employed, wherein whole seedlings of survival weeds were cut off with a blade along the soil surface, and the fresh weight of the weeds was weighed with an analytical balance. For dead weeds, the fresh weight thereof was zero.
(§10) The investigation was performed after 20 days of the treatment for only once.
(§11) An optimum ratio of the two active ingredients was determined by the actual control effect, characteristics of herbicides, and balance of a corresponding formula.
(§12) Wherein, in the formula, X represented the fresh weight inhibition rate of A in a dosage of P, and Y represented the fresh weight inhibition rate of the active ingredient B in a dosage of Q.

The next experiment concerns Setaria viridis.
Source text: as §1, §2, §3, §4, §5, §6, §7, §8, §9, §10, §11, §12

In another experiment the test system is Convolvulus arvensis.
Source text: as §1
(§13) The above weeds were cultivated by a pot culture method. […] Full and uniform weed seeds were selected, soaked in warm water at 25° C. for 6 hours, and germinated in a 28° C. biochemical incubator (darkness). […] A certain amount of water was added to the enamel pan regularly to keep the soil moist.
as §4, §5, §6, §7, §8, §9, §10, §12

In a further experiment the test system is Cirsium setosum.
Source text: as §1, §2, §3, §4, §5, §6, §7, §8, §9, §10, §11, §12

The next experiment deals with Amaranthus retrollexus. The following applies: Amaranthus retroflexus.
Source text: as §1, §13, §4, §5, §6, §7, §8, §9, §10, §12

Another experiment concerns Chenopodium album. Particulars: for actual fresh weight inhibition rate (%): Chenopodium album.
Source text: as §1, §13, §4, §5, §6, §7, §8, §9, §10, §12

A further experiment relates to Sonchus brachyotus.
Source text: as §1, §13, §4, §5, §6, §7, §8, §9, §10, §12

The next experiment relates to Rhizoma Cyperi.
Source text: as §1, §2, §3, §4, §5, §6, §7, §8, §9, §10, §11, §12

Where [1] appears, read: dosage of active ingredient 45 g/hm^2.
[2] abbreviates: dosage of active ingredient 90 g/hm^2.
The mark [3] stands for this setting: dosage of active ingredient 180 g/hm^2.
[4] abbreviates: dosage of active ingredient 112.5 g/hm^2.
Where [5] appears, read: dosage of active ingredient 225 g/hm^2.
Where [6] appears, read: dosage of active ingredient 450 g/hm^2.

In the case of `CCCCOCN(C(=O)CCl)c1c(CC)cccc1CC` [butachlor], the “actual fresh weight inhibition rate” value in the experiment with Echinochloa crusgalli (dosage 375 g/hm^2) stood at 2.4%; with Echinochloa crusgalli (dosage 750 g/hm^2), 3.9%; in the experiment with Echinochloa crusgalli (dosage 1500 g/hm^2), 5.4%; in the experiment with Setaria viridis (dosage 375 g/hm^2) it was 2.7%; in the experiment on Setaria viridis (dosage 750 g/hm^2), 3.8%; with Setaria viridis (dosage 1500 g/hm^2), 5.9%.
With `Nc1c(Cl)c(F)nc(OCC(=O)O)c1Cl` [fluroxypyr], the “actual fresh weight inhibition rate” value in the experiment on Convolvulus arvensis (dosage 60 g/hm^2) is 63.2%; with Convolvulus arvensis (dosage 120 g/hm^2) it was 78.2%; with Convolvulus arvensis (dosage 240 g/hm^2), 92.2%; in the experiment with Cirsium setosum (dosage 60 g/hm^2), 56.2%; in the experiment on Cirsium setosum (dosage 120 g/hm^2), 79.2%; in the experiment on Cirsium setosum (dosage 240 g/hm^2), 95.4%.
For `CCn1ncc(C(=O)c2ccc(S(C)(=O)=O)c(COCC(F)(F)F)c2Cl)c1OC(=O)c1cn(C)nc1C` [A1], the “actual fresh weight inhibition rate (%)” value with Amaranthus retrollexus (setting [1]) is listed as 45.7%; in the experiment on Amaranthus retrollexus (setting [2]) it was 81.6%; with Amaranthus retrollexus (setting [3]), 100%; in the experiment with Chenopodium album (setting [1]), 19.1%; in the experiment on Chenopodium album (setting [2]), 30.2%; in the experiment with Chenopodium album (setting [3]) it was 48.7%. Moreover, the “actual fresh weight inhibition rate” value is 19.1% in the experiment on Chenopodium album (dosage 45 g/hm^2); 30.2% in the experiment on Chenopodium album (dosage 90 g/hm^2); 48.7% in the experiment with Chenopodium album (dosage 180 g/hm^2); 23.2% in the experiment with Convolvulus arvensis (dosage 45 g/hm^2); 38.9% in the experiment with Convolvulus arvensis (dosage 90 g/hm^2); 48.2% with Convolvulus arvensis (dosage 180 g/hm^2). Moreover, the “actual fresh weight inhibition rate” value in the experiment on Sonchus brachyotus (dosage 45 g/hm^2) was 32.1%; in the experiment with Sonchus brachyotus (dosage 90 g/hm^2), 53.2%; with Sonchus brachyotus (dosage 180 g/hm^2) it was 78.8%; with Echinochloa crusgalli (dosage 45 g/hm^2) it was 54.2% and 42.4%; with Echinochloa crusgalli (dosage 90 g/hm^2), 82.1% and 83.5%; in the experiment on Echinochloa crusgalli (dosage 180 g/hm^2), 100%. Moreover, the “actual fresh weight inhibition rate” value is 19.3% with Cirsium setosum (dosage 45 g/hm^2); 20.4% in the experiment on Cirsium setosum (dosage 90 g/hm^2); 38.5% with Cirsium setosum (dosage 180 g/hm^2); 22.8% in the experiment with Rhizoma Cyperi (dosage 45 g/hm^2); 31.1% in the experiment on Rhizoma Cyperi (dosage 90 g/hm^2); 44.2% in the experiment on Rhizoma Cyperi (dosage 180 g/hm^2). Moreover, the “actual fresh weight inhibition rate” value in the experiment with Setaria viridis (dosage 45 g/hm^2) was 45.7% and 42.1% and 39.9%; in the experiment with Setaria viridis (dosage 90 g/hm^2), 81.6% and 80.3% and 81.2%; with Setaria viridis (dosage 180 g/hm^2), 100%.
Regarding `COc1c(Cl)ccc(Cl)c1C(=O)O` [dicamba], the “actual fresh weight inhibition rate” value with Chenopodium album (dosage 75 g/hm^2) was determined as 66.2%; in the experiment on Chenopodium album (dosage 150 g/hm^2), 85.3%; with Chenopodium album (dosage 300 g/hm^2) it was 100%; in the experiment with Convolvulus arvensis (dosage 75 g/hm^2), 64.4%; in the experiment with Convolvulus arvensis (dosage 150 g/hm^2), 78.9%; with Convolvulus arvensis (dosage 300 g/hm^2), 92.8%.
On to `COC(=O)c1c(Cl)nn(C)c1S(=O)(=O)NC(=O)Nc1nc(OC)cc(OC)n1` [halosulfuron-methyl], for which the “actual fresh weight inhibition rate” value is listed as 67.2% with Rhizoma Cyperi (dosage 15 g/hm^2), 89.3% in the experiment on Rhizoma Cyperi (dosage 30 g/hm^2) and 100% in the experiment with Rhizoma Cyperi (dosage 60 g/hm^2).
`CSc1nnc(C(C)(C)C)c(=O)n1N` [metribuzin]: the “actual fresh weight inhibition rate” value in the experiment on Echinochloa crusgalli (dosage 112.5 g/hm^2) came to 22.4%; with Echinochloa crusgalli (dosage 225 g/hm^2), 32.1%; with Echinochloa crusgalli (dosage 450 g/hm^2), 42.5%; in the experiment on Setaria viridis (dosage 112.5 g/hm^2), 21.5%; in the experiment on Setaria viridis (dosage 225 g/hm^2) it was 33.6%; in the experiment with Setaria viridis (dosage 450 g/hm^2), 43.5%.
In the case of `CC(C)N1C(=O)c2ccccc2NS1(=O)=O` [bentazone], the “actual fresh weight inhibition rate” value is on record as 56.5% in the experiment with Chenopodium album (dosage 150 g/hm^2); 75.9% in the experiment with Chenopodium album (dosage 300 g/hm^2); 94.3% in the experiment with Chenopodium album (dosage 600 g/hm^2); 65.3% with Rhizoma Cyperi (dosage 150 g/hm^2); 83.5% in the experiment on Rhizoma Cyperi (dosage 300 g/hm^2); 92.1% in the experiment on Rhizoma Cyperi (dosage 600 g/hm^2).
`O=C(Nc1ccc(F)cc1F)c1cccnc1Oc1cccc(C(F)(F)F)c1` [diflufenican]: the “actual fresh weight inhibition rate” value in the experiment with Echinochloa crusgalli (dosage 75 g/hm^2) is 7.2%; in the experiment with Echinochloa crusgalli (dosage 150 g/hm^2), 9.4%; with Echinochloa crusgalli (dosage 300 g/hm^2), 10.3%; in the experiment with Setaria viridis (dosage 75 g/hm^2) it was 3.9%; in the experiment on Setaria viridis (dosage 150 g/hm^2), 8.3%; in the experiment on Setaria viridis (dosage 300 g/hm^2), 10.5%.
Take `CCNc1nc(Cl)nc(NC(C)C)n1` [atrazine]: the “actual fresh weight inhibition rate” value in the experiment on Echinochloa crusgalli (dosage 375 g/hm^2) is given as 20.3%; with Echinochloa crusgalli (dosage 750 g/hm^2), 34.2%; in the experiment on Echinochloa crusgalli (dosage 1500 g/hm^2), 45.1%; with Setaria viridis (dosage 375 g/hm^2) it was 21.3%; in the experiment on Setaria viridis (dosage 750 g/hm^2) it was 31.4%; in the experiment on Setaria viridis (dosage 1500 g/hm^2), 41.4%.
Take `CC(C)c1nn(C(=O)NC(C)(C)C)c(=O)n1N` [amicarbazone]: the “actual fresh weight inhibition rate (%)” value in the experiment on Amaranthus retrollexus (setting [4]) is 21.6%; with Amaranthus retrollexus (setting [5]), 31.9%; with Amaranthus retrollexus (setting [6]), 41.8%; in the experiment on Chenopodium album (setting [4]), 36.5%; with Chenopodium album (setting [5]), 45.9%; in the experiment on Chenopodium album (setting [6]), 64.3%.
With `COc1cc(OC)nc(NC(=O)NS(=O)(=O)c2ncccc2C(=O)N(C)C)n1` [nicosulfuron], the “actual fresh weight inhibition rate” value is recorded as 33.1% in the experiment with Echinochloa crusgalli (dosage 15 g/hm^2); 74.5% in the experiment on Echinochloa crusgalli (dosage 30 g/hm^2); 100% in the experiment with Echinochloa crusgalli (dosage 60 g/hm^2); 45.7% in the experiment on Setaria viridis (dosage 15 g/hm^2); 79.6% in the experiment with Setaria viridis (dosage 30 g/hm^2); 100% in the experiment on Setaria viridis (dosage 60 g/hm^2).
In the case of `CCNc1nc(Cl)nc(NC(C)(C)C)n1` [terbuthylazine], the “actual fresh weight inhibition rate” value was found to be 31.4% in the experiment with Echinochloa crusgalli (dosage 375 g/hm^2); 42.1% in the experiment with Echinochloa crusgalli (dosage 750 g/hm^2); 51.7% in the experiment on Echinochloa crusgalli (dosage 1500 g/hm^2); 25.2% in the experiment with Setaria viridis (dosage 375 g/hm^2); 30.6% in the experiment with Setaria viridis (dosage 750 g/hm^2); 42.3% with Setaria viridis (dosage 1500 g/hm^2).
With `CCCCCCCC(=O)Oc1c(Br)cc(C#N)cc1Br` [bromoxynil octanoate], the “actual fresh weight inhibition rate” value is reported as 58.9% in the experiment with Convolvulus arvensis (dosage 112.5 g/hm^2); 79.2% in the experiment on Convolvulus arvensis (dosage 225 g/hm^2); 98.1% in the experiment on Convolvulus arvensis (dosage 450 g/hm^2); 56.2% with Sonchus brachyotus (dosage 112.5 g/hm^2); 78.3% in the experiment with Sonchus brachyotus (dosage 225 g/hm^2); 99.2% with Sonchus brachyotus (dosage 450 g/hm^2).
As for `CCc1cccc(C)c1N(C(=O)CCl)[C@@H](C)COC` [s-metolachlor], the “actual fresh weight inhibition rate” value in the experiment on Echinochloa crusgalli (dosage 375 g/hm^2) is on record as 2.5%; in the experiment on Echinochloa crusgalli (dosage 750 g/hm^2) it was 3.4%; in the experiment on Echinochloa crusgalli (dosage 1500 g/hm^2), 5.6%; in the experiment on Setaria viridis (dosage 375 g/hm^2) it was 2.9%; in the experiment with Setaria viridis (dosage 750 g/hm^2) it was 3.9%; in the experiment with Setaria viridis (dosage 1500 g/hm^2), 6.2%.

(Values after patent publication US10729133B2, “Cornfield herbicidal composition and application thereof” (priority 2016, dated 2020).)
